≈ marks a conversion by molar mass, not a printed value. Calls of active or inactive are those of the source. No cut-off for these calls is given here.
Legend:
Bacillus subtilis [1] = experiment: Antibacterial activity against Bacillus subtilis ATCC 6633 assessed as inhibition zone at 25 ug/mL by Kirby Bauer paper diffusion method; type: functional; details: read-out: DIZ
Bacillus subtilis [2] = experiment: Antibacterial activity against Bacillus subtilis ATCC 6633 by Kirby Bauer paper diffusion method; type: functional
Escherichia coli = experiment: Antibacterial activity against Escherichia coli O157:H7 by Kirby Bauer paper diffusion method; type: functional, organism-based
Bacillus subtilis [3] = experiment: Antibacterial activity against Bacillus subtilis ATCC 6633 assessed as inhibition zone at 10 ug/mL by Kirby Bauer paper diffusion method; type: functional; details: read-out: DIZ
Bacillus subtilis [4] = experiment: Antibacterial activity against Bacillus subtilis ATCC 6633 assessed as inhibition zone at 15 ug/mL by Kirby Bauer paper diffusion method; type: functional; details: read-out: DIZ

## O=C1C[C@]2(C=Cc3c(c4ccccc4oc3=O)O2)CN1
Bacillus subtilis [1]
  zone of inhibition at 25 µg/mL: 5 mm
Bacillus subtilis [2]
  MIC: 25 µg/mL (≈ 92.8 µM)
Escherichia coli
  Activity: inactive

## O=C(Nc1ccccc1)c1cc(O)c(O)c(O)c1
Bacillus subtilis [1]
  zone of inhibition at 25 µg/mL: 0 mm
Bacillus subtilis [2]
  MIC: 25 µg/mL (≈ 102 µM)
Escherichia coli
  Activity: inactive

## CC1(C)S[C@@H]2[C@H](NC(=O)Cc3ccccc3)C(=O)N2[C@H]1C(=O)[O-].[K+] [PENICILLIN G POTASSIUM]
Bacillus subtilis [3]
  zone of inhibition at 10 µg/mL: 16 mm
Bacillus subtilis [4]
  zone of inhibition at 15 µg/mL: 20 mm
Bacillus subtilis [2]
  MIC: 10 µg/mL

## O=C(NCCO)c1ccccc1
Bacillus subtilis [4]
  zone of inhibition at 15 µg/mL: 7 mm
Bacillus subtilis [2]
  MIC: 15 µg/mL (≈ 90.8 µM)
Escherichia coli
  Activity: inactive

## C#Cc1ccc(-c2c(C=O)c3ccccc3oc2=O)cc1
Bacillus subtilis [1]
  zone of inhibition at 25 µg/mL: 5 mm
Bacillus subtilis [2]
  MIC: 25 µg/mL (≈ 91.1 µM)
Escherichia coli
  Activity: inactive

## Cc1c2oc(=O)ccc2cc2c(O)c(C(C)(C)O)oc12
Bacillus subtilis [1]
  zone of inhibition at 25 µg/mL: 4 mm
Bacillus subtilis [2]
  MIC: 25 µg/mL (≈ 91.2 µM)
Escherichia coli
  Activity: inactive
